Results as given in patent US20260297081A1, “COMPOUNDS AND METHODS OF TREATING CANCERS” (Cullgen Inc., priority 2023, published 2026).
pIC50: −log10 of the molar value.

Experiments:
Assay type in all cases: cell-based
CDK4 [1] = biological target: T1, CDK4 (Homo sapiens, UniProt P11802+Q16531); assay: CDK4 percentage degradation in Calu-1 cells (Table 6); set-up: Cells that express cyclin D1-3 and CDK4/6 proteins were treated with heterobifunctional compounds; endogenous in cells; host or cells: Calu-1; details: 16 hours
Method in brief: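 Calu-1 cells exposed to heterobifunctional compounds at 40 nM or 200 nM for 16 h. Cyclin D1 and CDK4 levels measured by Western blot of RIPA lysates (BCA-normalised loading), bands quantified by densitometry and expressed as percentage degradation.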
Target sequence in this assay (P11802 2-303 limits assumed): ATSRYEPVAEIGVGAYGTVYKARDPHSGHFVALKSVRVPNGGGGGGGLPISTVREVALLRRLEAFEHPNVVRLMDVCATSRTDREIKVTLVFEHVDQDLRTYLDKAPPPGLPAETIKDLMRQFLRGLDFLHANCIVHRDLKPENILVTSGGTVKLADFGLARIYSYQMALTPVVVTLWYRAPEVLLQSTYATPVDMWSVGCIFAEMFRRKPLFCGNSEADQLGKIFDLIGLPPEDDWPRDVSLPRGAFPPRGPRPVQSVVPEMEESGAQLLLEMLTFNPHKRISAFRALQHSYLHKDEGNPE
Target sequence in this assay (P24385 whole entry partner): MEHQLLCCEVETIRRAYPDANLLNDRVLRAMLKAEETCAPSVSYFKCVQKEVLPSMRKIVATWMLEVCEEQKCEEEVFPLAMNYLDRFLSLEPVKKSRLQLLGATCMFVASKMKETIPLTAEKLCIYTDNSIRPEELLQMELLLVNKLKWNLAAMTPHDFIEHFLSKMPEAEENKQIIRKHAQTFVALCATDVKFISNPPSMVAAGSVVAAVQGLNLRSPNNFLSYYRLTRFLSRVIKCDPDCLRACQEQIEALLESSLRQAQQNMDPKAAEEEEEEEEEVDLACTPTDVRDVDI
Target sequence in this assay (Q16531 2-1140 limits assumed): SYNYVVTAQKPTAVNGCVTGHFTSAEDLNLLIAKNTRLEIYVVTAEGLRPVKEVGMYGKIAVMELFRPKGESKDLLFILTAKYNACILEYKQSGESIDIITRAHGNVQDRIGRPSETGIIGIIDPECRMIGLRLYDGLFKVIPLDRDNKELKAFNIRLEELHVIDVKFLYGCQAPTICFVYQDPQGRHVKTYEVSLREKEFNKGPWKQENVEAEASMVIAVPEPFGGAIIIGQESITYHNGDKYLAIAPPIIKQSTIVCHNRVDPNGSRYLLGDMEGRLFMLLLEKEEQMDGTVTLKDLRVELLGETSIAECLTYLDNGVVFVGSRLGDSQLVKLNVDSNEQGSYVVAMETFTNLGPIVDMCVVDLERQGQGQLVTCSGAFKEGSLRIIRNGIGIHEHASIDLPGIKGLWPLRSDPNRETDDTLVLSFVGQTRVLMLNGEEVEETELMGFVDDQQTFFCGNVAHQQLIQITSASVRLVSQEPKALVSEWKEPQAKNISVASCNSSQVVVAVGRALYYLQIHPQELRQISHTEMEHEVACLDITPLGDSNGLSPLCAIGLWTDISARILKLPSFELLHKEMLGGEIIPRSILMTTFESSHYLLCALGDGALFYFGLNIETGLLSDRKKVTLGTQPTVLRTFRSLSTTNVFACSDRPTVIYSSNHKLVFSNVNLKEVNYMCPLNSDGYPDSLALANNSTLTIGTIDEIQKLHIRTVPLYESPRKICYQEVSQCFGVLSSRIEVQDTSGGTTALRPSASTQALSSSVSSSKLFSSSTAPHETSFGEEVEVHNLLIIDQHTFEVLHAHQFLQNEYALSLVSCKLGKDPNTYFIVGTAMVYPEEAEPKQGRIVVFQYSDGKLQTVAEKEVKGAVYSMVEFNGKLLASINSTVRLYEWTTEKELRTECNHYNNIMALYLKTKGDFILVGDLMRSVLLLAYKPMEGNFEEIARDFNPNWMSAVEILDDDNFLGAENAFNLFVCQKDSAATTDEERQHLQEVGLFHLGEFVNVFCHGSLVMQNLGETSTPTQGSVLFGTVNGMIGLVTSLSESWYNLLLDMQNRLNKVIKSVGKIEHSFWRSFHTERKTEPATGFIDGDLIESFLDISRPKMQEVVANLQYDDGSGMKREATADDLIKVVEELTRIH

Calu-1 cells = assay: Anti-proliferation (viability) of NSCLC Calu-1 cells, 3 days (Table 7, FIG. 2B); details: Homo sapiens, 72 h; Calu-1 cells, 3 days, 10-point serial dilution; read-out: GI IC50 in Calu-1
Method in brief: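 Seed cells, add compound in ten serially diluted concentrations, then incubate (Calu-1: 3 days; T47D: 6 days) before measuring viability.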

MCF7 cells = assay: Anti-proliferation (viability) of MCF7 cells (Table 7, FIG. 2B); details: Homo sapiens, MCF7, MCF7 cells, 3-6 days, 10-point serial dilution; read-out: GI IC50 in MCF-7
CDK4 [2] = biological target: T1, CDK4; assay: HiBiT detection of HiBiT-tagged CDK4 protein level in MCF7 cells, 16 hours (Table 8); set-up: expressed in transfected cells; host or cells: MCF7; details: MCF7 cells stably expressing HiBiT tagged target proteins; for activity at 0.01 µM: 10 nM, read-out: % CDK4 Relative Level (10 nM); for activity at 0.1 µM: 100 nM, read-out: % CDK4 Relative Level (100 nM)
Description: HiBiT detection system quantitatively measures total amounts of HiBiT-tagged proteins using a luminescent based method. MCF7 cells stably expressing HiBiT tagged target proteins were treated with heterobifunctional compounds at indicated concentrations for 16 hours, then lysed with Nano-Glo HiBiT Lytic detection reagents.
Target sequence in this assay (P11802 whole entry): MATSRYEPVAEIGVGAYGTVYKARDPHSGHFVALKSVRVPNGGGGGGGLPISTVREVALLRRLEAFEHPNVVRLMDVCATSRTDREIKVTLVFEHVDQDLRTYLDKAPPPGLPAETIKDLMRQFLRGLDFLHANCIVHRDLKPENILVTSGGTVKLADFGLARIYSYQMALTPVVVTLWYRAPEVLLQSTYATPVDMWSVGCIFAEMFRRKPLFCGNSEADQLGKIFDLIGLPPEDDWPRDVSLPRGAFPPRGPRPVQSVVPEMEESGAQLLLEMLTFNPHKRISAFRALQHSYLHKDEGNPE
Target sequence in this assay (P24385 whole entry partner): as the sequence (P24385 whole entry partner) above
Target sequence in this assay (Q16531 2-1140 limits assumed): as the sequence (Q16531 2-1140 limits assumed) above

| SMILES | inhibition at 0.04 µM (CDK4 [1]; 40 nM) [%] | inhibition at 0.2 µM (CDK4 [1]; 200 nM) [%] | pIC50 (Calu-1 cells) | pIC50 (MCF7 cells) | activity at 0.01 µM (CDK4 [2]) [%] | activity at 0.1 µM (CDK4 [2]) [%] |
| --- | --- | --- | --- | --- | --- | --- |
| CNc1ccc(C(=O)Nc2ccc(N(C)C)nn2)c(NC2CC3(C2)CN(C(=O)C(F)(F)CN2CCN(c4ccc(Nc5ncc6c(C)c(C(C)=O)c(=O)n(C7CCCC7)c6n5)nc4)CC2)C3)n1 [CPD-208, 2-((2-(3-(4-(6-((6-acetyl-8-cyclopentyl-5-methyl-7-oxo-7,8-dihydropyrido[2,3-d]pyrimidin-2-yl)amino)pyridin-3-yl)piperazin-1-yl)-2,2-difluoropropanoyl)-2-azaspiro[3.3]heptan-6-yl)amino)-N-(6-(dimethylamino)pyridazin-3-yl)-6-(methylamino)nicotinamide] | 50 to 80 | > 80 | ≥ 8.00 | > 7.30 |  |  |
| [2H]C([2H])([2H])Nc1ccc(C(=O)Nc2ccc(N(C)C)nn2)c(NC2CC3(C2)CN(C(=O)C(C)N2CCN(Cc4ccc(Nc5ncc6c(C)c(C(C)=O)c(=O)n(C7CCCC7)c6n5)nc4)CC2)C3)n1 (stereo not shown) [CPD-456, 2-((2-(2-(4-((6-((6-acetyl-8-cyclopentyl-5-methyl-7-oxo-7,8-dihydropyrido[2,3-d]pyrimidin-2-yl)amino)pyridin-3-yl)methyl)piperazin-1-yl)propanoyl)-2-azaspiro[3.3]heptan-6-yl)amino)-N-(6-(dimethylamino)pyridazin-3-yl)-6-((methyl-d3)amino)nicotinamide] |  |  | ≥ 8.00 | > 7.30 | 55 to 85 | 55 to 85 |
| CC(=O)c1c(C)c2cnc(Nc3ccc(N4CCN(C5CCN(C(=O)N6CCC(Nc7nc(NC(C)C)ccc7C(=O)Nc7ccc(N(C)C)nn7)CC6)C5)CC4)cn3)nc2n(C2CCCC2)c1=O (stereo not shown) [CPD-469, 2-((1-(3-(4-(6-((6-acetyl-8-cyclopentyl-5-methyl-7-oxo-7,8-dihydropyrido[2,3-d]pyrimidin-2-yl)amino)pyridin-3-yl)piperazin-1-yl)pyrrolidine-1-carbonyl)piperidin-4-yl)amino)-N-(6-(dimethylamino)pyridazin-3-yl)-6-(isopropylamino)nicotinamide] |  |  | ≥ 8.00 | > 7.30 | ≤ 55 | ≤ 55 |
| CC(=O)c1c(C)c2cnc(Nc3ccc(CN4CCN(CC(=O)NC5CC6(C5)CC(Nc5nc(NC(C)C)ccc5C(=O)Nc5ccc(N(C)C)nn5)C6)CC4)cn3)nc2n(C2CCCC2)c1=O (stereo not shown) [CPD-472, 2-((6-(2-(4-((6-((6-acetyl-8-cyclopentyl-5-methyl-7-oxo-7,8-dihydropyrido[2,3-d]pyrimidin-2-yl)amino)pyridin-3-yl)methyl)piperazin-1-yl)acetamido)spiro[3.3]heptan-2-yl)amino)-N-(6-(dimethylamino)pyridazin-3-yl)-6-(isopropylamino)nicotinamide] |  |  | ≥ 8.00 | > 7.30 | 55 to 85 | ≤ 55 |
| CC(=O)c1c(C)c2cnc(Nc3ccc(CN4CCN(CC(=O)NC5CCC(Nc6nc(NC(C)C)ccc6C(=O)Nc6ccc(N(C)C)nn6)CC5)CC4)cn3)nc2n(C2CCCC2)c1=O (stereo not shown) [CPD-473, 2-((4-(2-(4-((6-((6-acetyl-8-cyclopentyl-5-methyl-7-oxo-7,8-dihydropyrido[2,3-d]pyrimidin-2-yl)amino)pyridin-3-yl)methyl)piperazin-1-yl)acetamido)cyclohexyl)amino)-N-(6-(dimethylamino)pyridazin-3-yl)-6-(isopropylamino)nicotinamide] |  |  | ≥ 8.00 | > 7.30 | > 85 | > 85 |
| CC(=O)c1c(C)c2cnc(Nc3ccc(N4CCN(C5CCN(C(=O)[C@H]6CC[C@H](Nc7nc(NC(C)C)ccc7C(=O)Nc7cc(C)n(C)n7)CC6)C5)CC4)cn3)nc2n(C2CCCC2)c1=O (stereo partly shown) [CPD-478, 2-((4-(3-(4-(6-((6-acetyl-8-cyclopentyl-5-methyl-7-oxo-7,8-dihydropyrido[2,3-d]pyrimidin-2-yl)amino)pyridin-3-yl)piperazin-1-yl)pyrrolidine-1-carbonyl)cyclohexyl)amino)-N-(1,5-dimethyl-1H-pyrazol-3-yl)-6-(isopropylamino)nicotinamide] |  |  | ≥ 8.00 | > 7.30 | > 85 | 55 to 85 |

Second part, the compound after the results:

| inhibition at 0.04 µM (CDK4 [1]; 40 nM) [%] | inhibition at 0.2 µM (CDK4 [1]; 200 nM) [%] | pIC50 (Calu-1 cells) | pIC50 (MCF7 cells) | activity at 0.01 µM (CDK4 [2]) [%] | activity at 0.1 µM (CDK4 [2]) [%] | SMILES |
| --- | --- | --- | --- | --- | --- | --- |
|  |  | ≥ 8.00 | > 7.30 | > 85 | > 85 | CC(=O)c1c(C)c2cnc(Nc3ccc(N4CCN(C5CCN(C(=O)[C@H]6CC[C@H](Nc7nc(NC(C)C)ccc7C(=O)Nc7cn(C)c(C8CC8)n7)CC6)C5)CC4)cn3)nc2n(C2CCCC2)c1=O (stereo partly shown) [CPD-481, 2-((4-(3-(4-(6-((6-acetyl-8-cyclopentyl-5-methyl-7-oxo-7,8-dihydropyrido[2,3-d]pyrimidin-2-yl)amino)pyridin-3-yl)piperazin-1-yl)pyrrolidine-1-carbonyl)cyclohexyl)amino)-N-(2-cyclopropyl-1-methyl-1H-imidazol-4-yl)-6-(isopropylamino)nicotinamide] |
|  |  | ≥ 8.00 | > 7.30 | 55 to 85 | 55 to 85 | CC(=O)c1c(C)c2cnc(Nc3ccc(CN4CCN(CC(=O)N5CCC6(CCC(Nc7nc(NC(C)C)ccc7C(=O)Nc7ccc(N(C)C)nn7)C6)C5)CC4)cn3)nc2n(C2CCCC2)c1=O (stereo not shown) [CPD-487, 2-((2-(2-(4-((6-((6-acetyl-8-cyclopentyl-5-methyl-7-oxo-7,8-dihydropyrido[2,3-d]pyrimidin-2-yl)amino)pyridin-3-yl)methyl)piperazin-1-yl)acetyl)-2-azaspiro[4.4]nonan-7-yl)amino)-N-(6-(dimethylamino)pyridazin-3-yl)-6-(isopropylamino)nicotinamide] |
|  |  | ≥ 8.00 | > 7.30 | > 85 | > 85 | [2H]C([2H])([2H])Nc1ccc(C(=O)Nc2ccc(N(C)C)nn2)c(NC2CCN(CC(=O)N3CCN(Cc4ccc(Nc5ncc6c(C)c(C(C)=O)c(=O)n(C7CCCC7)c6n5)nc4)CC3)CC2)n1 [CPD-491] |
|  |  | ≥ 8.00 | > 7.30 | > 85 | > 85 | CCc1ccc(C(=O)Nc2ccc(N(C)C)nn2)c(N[C@H]2CC[C@H](C(=O)N3CCC(N4CCN(c5ccc(Nc6ncc7c(C)c(C(C)=O)c(=O)n(C8CCCC8)c7n6)nc5)CC4)C3)CC2)n1 (stereo partly shown) [CPD-492, 2-((4-(3-(4-(6-((6-acetyl-8-cyclopentyl-5-methyl-7-oxo-7,8-dihydropyrido[2,3-d]pyrimidin-2-yl)amino)pyridin-3-yl)piperazin-1-yl)pyrrolidine-1-carbonyl)cyclohexyl)amino)-N-(6-(dimethylamino)pyridazin-3-yl)-6-ethylnicotinamide] |
|  |  | ≥ 8.00 | > 7.30 | > 85 | 55 to 85 | CC(=O)c1c(C)c2cnc(Nc3ccc(N4CCN(C5CCN(C(=O)[C@H]6CC[C@H](Nc7nc(C(C)C)ccc7C(=O)Nc7ccc(N(C)C)nn7)CC6)C5)CC4)cn3)nc2n(C2CCCC2)c1=O (stereo partly drawn) [CPD-499, 2-((trans-4-(3-(4-(6-((6-acetyl-8-cyclopentyl-5-methyl-7-oxo-7,8-dihydropyrido[2,3-d]pyrimidin-2-yl)amino)pyridin-3-yl)piperazin-1-yl)pyrrolidine-1-carbonyl)cyclohexyl)amino)-N-(6-(dimethylamino)pyridazin-3-yl)-6-isopropylnicotinamide] |
|  |  | ≥ 8.00 | > 7.30 | > 85 | > 85 | CC(=O)c1c(C)c2cnc(Nc3ccc(CN4CCN(CC(=O)NC5CCC(Nc6nc(NC(C)C)ccc6C(=O)Nc6ccc(N(C)C)nn6)C5)CC4)cn3)nc2n(C2CCCC2)c1=O (stereo not shown) [CPD-501, 2-((3-(2-(4-((6-((6-acetyl-8-cyclopentyl-5-methyl-7-oxo-7,8-dihydropyrido[2,3-d]pyrimidin-2-yl)amino)pyridin-3-yl)methyl)piperazin-1-yl)acetamido)cyclopentyl)amino)-N-(6-(dimethylamino)pyridazin-3-yl)-6-(isopropylamino)nicotinamide] |
|  |  | ≥ 8.00 | > 7.30 | 55 to 85 | 55 to 85 | CC(=O)c1c(C)c2cnc(Nc3ccc(N4CCN(CCC(=O)NC56CC(Nc7nc(NC(C)C)ccc7C(=O)Nc7ccc(N(C)C)nn7)(C5)C6)CC4)cn3)nc2n(C2CCCC2)c1=O [CPD-503, 2-((3-(3-(4-(6-((6-acetyl-8-cyclopentyl-5-methyl-7-oxo-7,8-dihydropyrido[2,3-d]pyrimidin-2-yl)amino)pyridin-3-yl)piperazin-1-yl)propanamido)bicyclo[1.1.1]pentan-1-yl)amino)-N-(6-(dimethylamino)pyridazin-3-yl)-6-(isopropylamino)nicotinamide] |
